# Test results: US6613899B1, “Method for preventing deposits in oil extraction” (Cooperatie Cosun U.A., priority 1998, dated 2003)
# Tests used:
# [1] = Barium sulphate scale inhibition; conditions: pH 5.5, 80° C., 10 hours
# Experimental: (§1) The scale-inhibiting action of CMI (DP≈10) was determined for barium sulphate. A saturated barium sulphate solution was prepared by mixing a barium chloride solution (380 mg/l) with a sodium sulphate solution (3350 mg/l) in a 1:1 ratio, with a maximum amount of barium sulphate to be formed of 210 mg/l. 5 mg/l, 10 mg/l or 15 mg/l of inhibitor was added to the solution. The pH of the solution was adjusted to 5.5 by addition of 1 ml acetate buffer (3.6 g sodium acetate trihydrate and 0.5 g acetic acid per 100 ml) per 100 ml. The solution was then left to stand at 80° C. After 10 hours the solution was filtered by suction through a 0.45 μm Millipore filter and the barium content of the filtrate was determined. The action of the inhibitor was calculated on the basis of the barium value for the experiment without inhibitor (0 per cent inhibition) and the barium value at which no precipitate was formed (100 per cent inhibition).
# [2] = Barium sulphate scale inhibition in presence of Fe2+ ions; conditions: 38 mg/l Fe2+ ions, pH 5.5, 80° C., 10 hours
# Experimental: as §1
# Example 4 was repeated, with the exception that the barium sulphate solution contained 38 mg/l of Fe^2+ ions.
structure (smiles),measurement,setting,value
O=P(O)(O)CN(CCN(CP(=O)(O)O)CP(=O)(O)O)CCN(CP(=O)(O)O)CP(=O)(O)O [Pentaphosphonate (DETPMP)],Inhibition (%) with 5 mg/l,[1]; 5 mg/l inhibitor,18.0%
same,Inhibition (%) with 10 mg/l,[1]; 10 mg/l inhibitor,38.5%
same,Inhibition (%) with 15 mg/l,[1]; 15 mg/l inhibitor,55.5%
same,Inhibition (%) with 5 mg/l,[2]; 5 mg/l inhibitor,12.0%
same,Inhibition (%) with 10 mg/l,[2]; 10 mg/l inhibitor,21.5%
same,Inhibition (%) with 15 mg/l,[2]; 15 mg/l inhibitor,34.5%
